This note sets out measurements from US9629919B2, “Drug delivery of temozolomide for systemic based treatment of cancer” (CEDARS-SINAI MEDICAL CENTER, priority 2009, dated 2017).

Entries after “also recorded” stand apart in the source; their conditions may differ.

The subject of data set [1] is U87MG. The data set can be described thus: Cell viability (MTS). The class given is cell-based, human. As to the method:
(§1) Primary glioma cell lines U87MG and T98G, and invasive breast carcinoma cell lines MDA-MB-231 and MDA-MB-468 were obtained from American Type Culture Collection (ATCC, Manassas, Va., USA) USA. U87MG and T98G cells were cultured in MEM supplemented with 10% fetal bovine serum, 1% MEM NEAA, 1 mM sodium pyruvate and 2 mM L-glutamine. For MDA-MB-231 and MDA-MB-468, Leibovitz's L-15 medium with 10% fetal bovine serum was used. Cells were seeded at 10^3 per well (0.1 ml) in 96-well flat-bottomed plates and incubated overnight at 37° C. in humid atmosphere with 5% CO2 (MDA-MB-231 and MDA-MB-468 were incubated without CO2). After exposure to synthesized conjugates for 24 h, medium was replaced every 48 h. Cell viability was measured on day 5 for T98G and day 7 for the rest of the cell lines using the CELLTITER 96 Aqueous One Solution Cell Proliferation Assay kit (Cat. No. PR-G3580; Promega, Madison, Wis., USA). Yellow [3-(4,5-dimethylthiazol-2-yl)-5-(3-carboxymethoxyphenyl)-2-(4-sulfophenyl-)-2H-tetrazolium, inner salt] (MTS) is bioreduced by cells into formazan that is soluble in the tissue culture medium. The absorbance reading at 490 nm from the 96-well plates is directly proportional to the number of living cells (32). The viability of the untreated cells was taken as 100%. The results shown are the means±standard deviation of three independent measurements. Data were analyzed by statistical software GRAPHPAD PRISM 3.0.

In data set [2] the test system is MDA-MB-468. The data set can be described thus: Cell viability (MTS). The format is cell-based, human. Conditions: MDA-MB-468, 24 h exposure, viability on day 7, untreated = 100%. The method, then:
as §1

The subject of data set [3] is MDA-MB-231. The data set can be described thus: Cell viability (MTS). The format is cell-based, human. Conditions: MDA-MB-231, 24 h exposure, viability on day 7, untreated = 100%. The method, then:
as §1

The subject of data set [4] is T98G. The data set can be described thus: Cell viability (MTS). Conditions: 24 h exposure, viability on day 5, untreated = 100%. The format is cell-based, human. The method, then: as §1
Data set [5] can be described thus: physchem. The class given is physicochemical. Conditions: buffer, pH 7.4. The method, then: The conjugation reaction of PMLA with PEG, TMZH, LLL and LOEt was followed by thin layer chromatography (TLC) on precoated silica gel 60 F254 aluminum sheets (Merck, Darmstadt, Germany) and visualization of spots by UV light and/or by ninhydrin staining. The concentration of free or conjugated TMZH was monitored by reading A328 and using known amounts of TMZ or TMZH standards. Size exclusion chromatography was performed on LACHROM ELITE, an analytical High Performance Liquid Chromatograph (HPLC) system with Diode Array Detector L 2455 (Hitachi, Pleasanton, Calif., USA), and Mw was measured using BioSep-SEC-S 3000 (300×7.80 mm) (Phenomenex, Torrance, Calif., USA) with 50 mM sodium phosphate buffer pH 6.8 and polystyrene sulfonates as molecular weight standards. Thiol residues attached to PMLA were assayed by the method of Ellman. Enzyme-linked immunosorbent assay (ELISA) was used to determine the functional activity of conjugated antibody using a Protein Detector ELISA Kit (KPL, Inc., Gaithersburg, Mass., USA). Human TfR ectodomain used as antigen was obtained from Protein Expression Center, California Institute of Technology, Pasadena, USA.
TMZ is a prodrug and undergoes spontaneous conversion to the active alkylating agent at neutral or alkaline pH. Half-lives were measured at physiological pH 7.4 in PBS and summarized in Table I. The decomposition of free and conjugated TMZH by hydrolytic ring opening (Chart 1) was a first order reaction for free TMZ or TMZH and conjugated TMZH (data not shown). […] Similar data have been reported for TMZ conjugated with small carbon chains (6). No detectable decomposition was observed during 24 h at pH 5.0 at RT.

For the compound `Cn1nnc2c(C(N)=O)ncn2c1=O` [TMZ, temozolomide], the “effect on cell viability” value in data set [1] (24 h exposure, viability on day 7, untreated = 100%) is “stronger effect on U87MG cells than the nanoconjugates; also recorded: responded”; in data set [2], “inactive; also recorded: ineffective at all concentrations below 130 μM; also recorded: did not change”; in data set [3] it was “inactive; also recorded: did not change”; in data set [4] it was “inactive; also recorded: did not change”. Further, the “order of increasing potency on cell viability” value in data set [1] (FIG. 6a) was “P/PEG(2%)/LLL(40%)/TMZH(17%)/IgG(0.25%)<P/PEG(2%)/LLL(40%)/TMZH(17%)<P/PEG(2%)/LLL(40%)/TMZH(17%)/HuTfR mAb(0.25%)<TMZ”. Moreover, in data set [5], the “Half-life of TMZ” value is given as 1.8 h. The compound further had a half-life in data set [5] of 1.8 ± 0.1 h.
For `Cn1nnc2c(C(=O)NN)ncn2c1=O` [TMZH, temozolomide hydrazide], the half-life in data set [5] was 1.98 ± 0.1 h.
